“And” between values parts separate entries of the source, which are not always exact repeats. Identical values can stand only once. Like-named read-outs stand apart in the source and are kept apart here.
How the values were obtained:
[1] = PAMPA (parallel artificial membrane permeability assay); format: in vitro ADME; conditions: for Papp at 10 h, 500 µM: PAMPA, read-out: PAMPA log Pe (converted); for Papp at 10 h, 500 µM / Fa (fraction absorbed): compounds at 500 µM, 5% DMSO in PBS pH 7.4, 10 hours, room temperature
Protocol: PAMPA – methods and results (Table S2)
PAMPA was carried out in 96-well microtiter filter plates obtained from Millipore as described1 with some modifications. Each well of the filter plate was impregnated with 15 µL of 5% hexadecane dissolved in hexane (i.e. total amount of hexadecane: 0.75 µL) for at least 10 minutes in ventilated environment to allow for complete evaporation of hexane. Donor compartments were filled with 200 µL compound-containing donor solutions of compounds dissolved in 5% DMSO, phosphate buffered saline PBS) and connected to acceptor plate prefilled with buffer (5% DMSO in PBS, pH 7.4). The resulting sandwich was incubated at room temperature under gentle shaking and wrapped in wet paper towels to avoid evaporation. After 10 hours, the sandwich was disassembled and the solutions in the acceptor and donor were transferred to a disposable UV-transparent plate. UV absorption was measured at wavelengths between 220 and 340 nm using a microplate reader (CLARIOstar).
Compounds were tested at 500 µM. Calibration to determine concentration of compounds were performed with varying compound concentrations in buffer (5% DMSO in PBS).
The artificial membrane permeability is expressed as fraction absorbed (Fa%)2 or log Pe (log of the effective permeability)1. LogD values at pH 7.4 were calculated using MarvinSketch.
Fa% = 100 ∙CA ∙VA / CD0 ∙ VD where: CA = final drug concentration in the acceptor well (µM)
VA = volume in the acceptor well (cm3)
CD0 = Initial drug concentration in the donor well (µM)
VD = volume in the donor well (cm3) log P (cm/s) = log -ln 1-CA/Cequilibrium
S = surface area (cm2), typically 0.268 cm2
Cequilibrium = theoretical equilibrium concentration = [CD ∙VD+CA ∙VA] / [VD+VA] where: CD = final drug concentration in the donor well (µM)
CA = final drug concentration in the acceptor well (µM)
Table S2. Permeability data.
Compounds Fa (%) PAMPA log Pe (cm/s) cLogD (pH = 7.4)

[2] = biological target: T1, S. cerevisiae PDC (Saccharomyces cerevisiae, UniProt P06169); assay: S. cerevisiae PDC inhibitory activity assay (DCPIP reduction); format: biochemical; conditions: for % Inhibition (5:1): [Compound] = 750 μM, [TPP] = 150 μM; for inhibition at 750 µM: [Compound] = [TPP] = 750 μM, read-out: % Inhibition (1:1)
T1 construct: purchased Sigma
T1 sequence (P06169 2-563 limits assumed): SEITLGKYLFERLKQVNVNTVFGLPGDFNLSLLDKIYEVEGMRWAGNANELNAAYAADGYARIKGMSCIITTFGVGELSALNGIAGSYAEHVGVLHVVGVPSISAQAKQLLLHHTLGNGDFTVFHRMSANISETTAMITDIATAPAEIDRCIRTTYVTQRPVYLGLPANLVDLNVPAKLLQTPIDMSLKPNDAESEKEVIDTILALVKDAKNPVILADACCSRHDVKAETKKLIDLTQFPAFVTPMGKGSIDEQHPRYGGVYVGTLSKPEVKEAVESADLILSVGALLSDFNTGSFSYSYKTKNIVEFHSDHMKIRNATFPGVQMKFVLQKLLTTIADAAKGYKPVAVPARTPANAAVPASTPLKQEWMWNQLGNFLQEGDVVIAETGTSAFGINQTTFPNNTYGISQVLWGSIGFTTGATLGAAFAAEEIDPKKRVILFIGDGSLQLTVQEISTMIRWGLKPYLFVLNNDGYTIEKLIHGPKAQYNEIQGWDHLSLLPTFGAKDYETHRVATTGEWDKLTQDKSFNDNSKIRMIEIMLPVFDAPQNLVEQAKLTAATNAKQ
Protocol: S. cerevisiae PDC was purchased from Sigma. S. cerevisiae PDC activity was determined by monitoring DCPIP reduction at 600 nm using a microplate reader (CLARIOstar) and conducted as described[5] with some modifications. […] The reaction buffer (50 mM KH2PO4 and 1 mM MgCl2, pH 7) contained TPP at specified concentrations, 0.27 mM DCPIP, and 0.15 mg/mL S. cerevisiae PDC. The reaction mixture was preincubated at 37 °C with the inhibitor for 60 min, and then the reaction was initiated by adding pyruvate to a final concentration of 70 mM. […] Specific activity was calculated using the molar extinction coefficient of DCPIP, 21 mM^–1 cm^–1.[28] The IC50 values were calculated from nonlinear regression curve fitting using GraphPad Prism.
Enzyme inhibitory activity assays – methods and results (Figures S1-4) […]
The compound […]
S. cerevisiae PDC inhibitory activity assay. S. cerevisiae PDC was purchased from Sigma. S. cerevisiae PDC activity was determined by monitoring DCPIP reduction at 600 nm using a microplate reader (CLARIOstar) and conducted as described3 with some modifications. The percentage inhibition of compounds against S. cerevisiae PDC was assayed at 750 μM. The reaction buffer (50 mM KH 2PO4 and 1 mM MgCl2, pH 7) contained TPP at specified concentrations, 0.27 mM DCPIP, and 0.15 mg/ml S. cerevisiae PDC. The reaction mixture was preincubated at 37 °C with the inhibitor for 60 min, then reaction was initiated by adding pyruvate to a final concentration of 70 mM. To determine the IC50, TPP concentration was set at 150 µM with varying inhibitor concentrations. Specific activity was […]
calculated from non-linear regression curve fitting using GraphPad Prism. […]

[3] = calculated from KM(TPP) 15 µM using [TPP]/IC50 = KM(TPP)/KI
[4] = read-out: IC50 (μM ± SEM), [TPP] = 150 µM

| SMILES | membrane permeability in PAMPA (in words) [1] | Papp at 10 h, 500 µM [1] [×10⁻⁶ cm/s] | Fa (fraction absorbed) [1] [%] | IC50 [2] [µM] | Ki [2] [µM] | % Inhibition (5:1) [2] [%] | inhibition at 750 µM [2] [%] | vs TPP: affinity of the compound relative to that of TPP (= [TPP]/IC50) ([2]; [TPP] = 150 µM) | Ki [2, 3] [µM] | IC50 [2, 4] [µM] |
| --- | --- | --- | --- | --- | --- | --- | --- | --- | --- | --- |
| COC(=O)C(CCc1cn(Cc2cnc(C)nc2N)nn1)C(=O)OC [13a] | membrane-permeable | 6.31 | 39 | 939 ± 167 | 94 | 40 ± 4 | < 20 | 0.16 | – | – |
| COC(=O)C(CCCc1cn(Cc2cnc(C)nc2N)nn1)C(=O)OC [13b] | – | 6.31 | 42 | 713 ± 139 | 71 | 52 ± 3 | 21 ± 5 | 0.21 | – | – |
| Cc1ncc(Cn2cc(CCC(C(=O)[O-])C(=O)[O-])nn2)c(N)n1.[K+].[K+] [14a] | impermeable | 0.316 | 2 | – | – | 70 ± 2 | 31 ± 3 | 0.47 | 32 | 319 ± 57 |
| Cc1ncc(Cn2cc(CCCC(C(=O)[O-])C(=O)[O-])nn2)c(N)n1.[K+].[K+] [14b] | membrane-impermeable | 0.158 | 1 | – | – | 79 ± 3 | 42 ± 3 | 0.7 and 0.71 | 21 | 211 ± 39 |
| COC(=O)CCCc1cn(Cc2cnc(C)nc2N)nn1 [15a] | membrane-permeable | 5.01 | 38 | 883 ± 144 | 88 | 42 ± 3 | < 20 | 0.17 | – | – |
| COC(=O)CCCCc1cn(Cc2cnc(C)nc2N)nn1 [15b] | membrane-permeable | 6.31 | 44 | 789 ± 167 | 79 | 47 ± 4 | < 20 | 0.19 | – | – |
| Cc1ncc(Cn2cc(CCCC(=O)[O-])nn2)c(N)n1.[K+] [16a] | impermeable | 0.398 | 3 | – | – | 55 ± 4 | 24 ± 4 | 0.26 | 58 | 582 ± 88 |
| Cc1ncc(Cn2cc(CCCCC(=O)[O-])nn2)c(N)n1.[K+] [16b] | impermeable | 0.398 | 2 | – | – | 60 ± 4 | 25 ± 5 | 0.30 | 50 | 503 ± 76 |
